Calls of active or inactive are those of the source. No cut-off for these calls is given here.
Key:
[1] = tested on: CHO-AA8; experiment: Concentration x time (uM h) to reduce cell survival to 10% of control values under hypoxic conditions by clonogenic assay; format: ADME, cell-based, Cricetulus griseus; details: chinese hamster
[2] = tested on: CHO-AA8; experiment: Aerobic growth inhibition in Chinese hamster cell line AA8; format: functional, cell-based; details: Cricetulus griseus
[3] = tested on: EMT6; experiment: Hypersensitivity (HF) factor in murine mammary carcinoma EMT6 cells [HF= ratio (IC50 in AA8 cells)/(IC50 in EMT6)]; format: functional, Mus musculus
[4] = tested on: FME; experiment: Hypersensitivity (HF) factor in human melanoma FME cells [HF= ratio (IC50 in AA8 cells)/(IC50 in FME cells)]; format: functional
[5] = tested on: UV4; experiment: Hypersensitivity (HF) factor in chinese hamster cell line UV4 [HF= ratio (IC50 in AA8 cells)/(IC50 in UV4 cells)]; format: functional, Cricetulus griseus
[6] = Ratio between aerobic CT10 and hypoxic CT10; format: functional
[7] = Ratio between aerobic CT10 and hypoxic CT10; No aerobic cytotoxicity at the solubility limit
[8] = tested on: CHO-AA8; experiment: Concentration x time (uM h) to reduce cell survival to 10% of control values under hypoxic conditions by clonogenic assay. Inactive at the solubility limit; format: ADME, cell-based, Cricetulus griseus; details: chinese hamster
[9] = tested on: EMT6; experiment: Evaluated for hypersensitivity (HF) factor in murine mammary carcinoma EMT6 cells as HF=IC50 for AA8/IC50 for the murine mammary carcinoma EMT6; f means inactive at the solubility limit; format: functional, cell-based; details: Mus musculus
[10] = tested on: FME; experiment: Evaluated for hypersensitivity (HF) factor in human melanoma FME cells as HF=IC50 for AA8/IC50 for the human melanoma FME; f means inactive at the solubility limit; format: functional, cell-based
[11] = tested on: UV4; experiment: Evaluated for hypersensitivity (HF) factor in chinese hamster cell line UV4; Evaluated as HF=IC50 for AA8/IC50 for the chinese hamster cell line UV4; f means inactive at solubility limit; format: functional, cell-based; details: Cricetulus griseus

Compound | CT10 [1] [µM·h] | IC50 [2] [mM] | HF [3] | HF [4] | HF [5] | selectivity ratio [6] | selectivity ratio [7] | CT10 [8] [µM·h] | HF [9] | HF [10] | HF [11]
O=[N+]([O-])c1nccn1CCCNCCCn1ccnc1[N+](=O)[O-] | 2300 | 1.18 | 5.37 | 2.58 | 0.9 | 40 | – | – | – | – | –
O=[N+]([O-])c1nccn1CC(O)CN1CCCCC1 (stereo not drawn) [PIMONIDAZOLE] | 3500 | 3.03 | 6.3 | 4.07 | 1.37 | 40 | – | – | – | – | –
O=[N+]([O-])c1nccn1CC1OC(n2ccnc2[N+](=O)[O-])C(O)C(O)C1O (stereo not drawn) | 57000 | 7.4 | <0.8 | 2.44 | 0.89 | – | > 1.5 | – | – | – | –
COCC(O)Cn1ccnc1[N+](=O)[O-] (stereo not drawn) [MISONIDAZOLE] | 16000 | – | 3.6 | 1.94 | 1.37 | 18 | – | – | – | – | –
O=[N+]([O-])c1nccn1CC(O)CNCCBr (stereo not drawn) | 400 | – | 1.55 | 1 | 5.85 | 20 | – | – | – | – | –
CN(CCCn1ccnc1[N+](=O)[O-])CCCn1ccnc1[N+](=O)[O-] | 700 | 0.81 | 2.6 | 2.55 | 0.97 | 40 | – | – | – | – | –
C[N+](C)(CCCn1ccnc1[N+](=O)[O-])CCCn1ccnc1[N+](=O)[O-].[I-] | 23000 | 3.65 | 24.2 | 4.85 | 0.89 | 10 | – | – | – | – | –
O=C(NCCCn1ccnc1[N+](=O)[O-])C(=O)NCCCn1ccnc1[N+](=O)[O-] | – | > 0.08 | – | – | – | – | – | > 700 | Inactive at solubility limit | Inactive at solubility limit | Inactive at solubility limit
Cc1ncc([N+](=O)[O-])n1CCNCCCn1ccnc1[N+](=O)[O-] | 2400 | 4.74 | 4.73 | 3.61 | 1.42 | 14 | – | – | – | – | –
Cc1ncc([N+](=O)[O-])n1CC(O)Cn1cnc([N+](=O)[O-])n1 (stereo not drawn) | > 47000 | 2.3 | 4.85 | 3.63 | 1.16 | – | – | – | – | – | –
Cc1ncc([N+](=O)[O-])n1CC(O)Cn1ccnc1[N+](=O)[O-] (stereo not drawn) | 2400 | > 0.8 | – | >1.11 | >0.85 | – | > 3 | – | Inactive at solubility limit | – | –
Cc1ncc([N+](=O)[O-])n1CCNC(=O)CCCn1cnc([N+](=O)[O-])n1 | 100000 | 6.42 | 4.94 | 4.51 | 1.2 | > 1.3 | – | – | – | – | –
Cc1ncc([N+](=O)[O-])n1CCNS(=O)(=O)CCCn1cnc([N+](=O)[O-])n1 | – | 1.14 | <1.35 | 1.19 | <1.35 | – | – | – | – | – | –
Cc1ncc([N+](=O)[O-])n1CCNC(=O)CCCn1ccnc1[N+](=O)[O-] | 12000 | – | 4.64 | 3.51 | 1.38 | 8 | – | – | – | – | –
Cc1ncc([N+](=O)[O-])n1CCNS(=O)(=O)CCCn1ccnc1[N+](=O)[O-] | – | > 40.3 | >0.84 | >0.91 | – | – | – | – | – | – | Inactive at solubility limit
O=C(CCCn1cnc([N+](=O)[O-])n1)NCCCn1ccnc1[N+](=O)[O-] | 17000 | 5.28 | 8.38 | 5.94 | 1.25 | 3.5 | – | – | – | – | –
O=C(CCCn1cnc([N+](=O)[O-])n1)NCCn1ccnc1[N+](=O)[O-] | 15000 | 1.71 | 1.76 | >1.9 | 1.17 | – | > 1 | – | – | – | –
Cc1ncc([N+](=O)[O-])n1CCNC(=O)CCC(=O)NCCn1ccnc1[N+](=O)[O-] | 47000 | 6.6 | 7.09 | 3.49 | 1 | – | > 6 | – | – | – | –
Cc1ncc([N+](=O)[O-])n1CCNCCCCn1ccnc1[N+](=O)[O-] | 2400 | 2 | 2.12 | 1.27 | 1.07 | 12 | – | – | – | – | –
O=C(CCCn1ccnc1[N+](=O)[O-])NCCn1cnc([N+](=O)[O-])n1 | 17000 | 6.92 | 10.7 | 6.9 | 1.19 | – | > 6 | – | – | – | –
Cc1ncc([N+](=O)[O-])n1CCN(C)CCCCn1ccnc1[N+](=O)[O-] | 2000 | 1 | 1.44 | 1.54 | 0.98 | 8 | – | – | – | – | –
Cc1ncc([N+](=O)[O-])n1CCN(C)C(=O)CCCn1ccnc1[N+](=O)[O-] | 7200 | 4.8 | 2.09 | 2.83 | 1.05 | > 18 | – | – | – | – | –

— ChEMBL document CHEMBL1128381, “Hypoxia-selective antitumor agents. 10. bis(nitroimidazoles) and related Bis(nitroheterocycles): development of derivatives with higher rates of metabolic activation under hypoxia and improved aqueous solubility” (J Med Chem, 1995)
